IC50 and EC50 data for one compound are collected here from ChEMBL document CHEMBL1157986, “Vismiaphenones D-G, new prenylated benzophenones from Vismia cayennensis” (J Nat Prod, 1999).

The test system of one assay is CEM-SS. Nature of the assay: Cytotoxicity against human CEM-SS cells. The class given is functional, cell-based.
Assay [1] has as its system Human immunodeficiency virus. Nature of the assay: Antiviral activity against HIV. Conditions: Human immunodeficiency virus 1. Type of assay: functional, organism-based.

≈ marks a conversion by molar mass, not a printed value.

For `COc1c(CC=C(C)C)c(O)c(C(=O)c2ccc(O)cc2)c(O)c1CC=C(C)C` [VISMIAPHENONE D], half-maximal inhibition in the assay on CEM-SS (IC50) required 30 µg/mL (≈ 75.7 µM). In assay [1], this compound came in with an EC50 of 11 µg/mL (≈ 27.7 µM).
